Source: ChEMBL document CHEMBL1155003, “Halicyclamine A, a marine spongean alkaloid as a lead for anti-tuberculosis agent” (2008)
≈ marks a conversion by molar mass, not a printed value. Calls of active or inactive are those of the source. The calls are words filed in the database; no cut-off is given here.

Experiments:
[1] = tested on: Mycobacterium tuberculosis; assay: Antitubercular activity against Mycobacterium bovis BCG under hypoxic condition after 14 days by MTT method; assay type: functional; settings: variant bovis BCG, 336 h
[2] = tested on: Mycobacterium tuberculosis; assay: Antitubercular activity against Mycobacterium bovis BCG under aerobic condition after 7 days by MTT method; assay type: functional; settings: variant bovis BCG, 168 h
[3] = tested on: Mycobacterium tuberculosis; assay: Bactericidal activity against Mycobacterium bovis BCG assessed as decrease in CFU at 10 ug/ml after 4 weeks; assay type: functional, organism-based; settings: variant bovis BCG

Structure (SMILES) | MIC [1] | MIC [2] | Activity [3]
NNC(=O)c1ccncc1 [ISONIAZID] | > 100 mg/L | 0.03 mg/L (≈ 0.219 µM) | 
C1=C2CCCC/C=C\C=C\CCN3CC[C@@H]4[C@H](CCCCCC/C=C\C=C/CCN(C2)C[C@H]14)C3 [HALICYCLAMINE A] | 1 mg/L (≈ 2.16 µM) | 1 mg/L (≈ 2.16 µM) | Active
